This is an account of results in US20150023989A1, “NEW ANTIBODY DRUG CONJUGATES (ADCS) AND THE USE THEREOF” (SEATTLE GENETICS, INC., priority 2011, published 2015).

What is called Papp B→A is how fast a substance crosses the layer from the basolateral side.

Series [1] in a line: Flux assay using Caco-2 cells (cell permeability). The series is classed as in vitro ADME. To be noted: human, 2 hours incubation. The procedure: The cell permeability of a substance can be investigated by means of in vitro testing in a flux assay using Caco-2 cells [M. D. Troutman and D. R. Thakker, Pharm. Res. 20 (8), 1210-1224 (2003)]. For this purpose, the cells were cultured for 15-16 days on 24-well filter plates. For the determination of permeation, the respective working example was applied in a HEPES buffer to the cells either apically (A) or basally (B) and incubated for 2 hours. After 0 hours and after 2 hours, samples were taken from the cis and trans compartments. The samples were separated by HPLC (Agilent 1200, Böblingen, Germany) using reverse phase columns. The HPLC system was coupled via a Turbo Ion Spray Interface to a Triple Quadropol mass spectrometer API 4000 (Applied Biosystems Applera, Darmstadt, Germany). The permeability was evaluated on the basis of a Papp value, which was calculated using the formula published by Schwab et al. [D. Schwab et al., J. Med. Chem. 46, 1716-1725 (2003)].

Series [2] relates to tubulin. Nature of the series: Fluorescence-based microtubule polymerisation assay. Type of series: biochemical. The conditions noted are these: rate at 1 μM MMAF set at 100%. As for the experimental part:
Tubulin polymerization was investigated using the “Fluorescence-based Microtubule Polymerisation Assay Kit” from Cytoskeleton (Denver, Colo., USA; order number: BK011). With this assay, GTP is added to unpolymerized tubulin, allowing polymerization to take place spontaneously. The assay is based on the binding of the fluorophore 4′,6-diamidino-2-phenylindole (DAPI) to tubulin. Free and bound DAPI can be differentiated on the basis of different emission spectra.
In addition to the buffer control, paclitaxel, with a polymerization-increasing effect, and vinblastin, with a polymerization inhibiting effect, were run additionally as assay controls. Measurement was carried out using 96-well plates with a half base area. The kinetics of the tubulin polymerization were monitored in a Fluorimeter at 37° C. for 1 hour. The excitation wavelength was 355 nm, and emission was monitored at 460 nm. For the region of linear increase within the first 10 minutes, a calculation was made of the change in fluorescence per minute (ΔF/min), which represents the polymerization rate of the microtubuli. The potency of the test substances was quantified on the basis of their respective reduction of the polymerization rate. Table 6 below gives data for the influence of representative working examples on tubulin polymerization.

Series [3] addresses T1, P-glycoprotein (P-gp) (Homo sapiens, UniProt P08183).
T1 construct: expressed in transfected cells; host or cells: LLC-PK1 (pig kidney) cells transfected with human MDR1 (L-MDR1)
Nature of the series: Flux assay for P-gp substrate properties in L-MDR1 cells. Type of series: in vitro ADME. To be noted: L-MDR1 cells (P-gp overexpressing LLC-PK1), 2 hours incubation. As for the experimental part: The substrate properties of a substance for P-gp (ABCB1) were determined by means of a flux assay using LLC-PK1 cells which overexpress P-gp (L-MDR1 cells) [A. H. Schinkel et al., J. Clin. Invest. 96, 1698-1705 (1995)]. For this purpose, the LLC-PK1 cells or L-MDR1 cells were cultured on 96-well filter plates for 3-4 days. For determination of the permeation, the respective test substance, alone or in the presence of an inhibitor (such as Ivermectin or Verapamil, for example), was applied in a HEPES buffer to the cells either apically (A) or basally (B) and incubated for 2 hours. After 0 hours and after 2 hours, samples were taken from the cis and trans compartments. The samples were separated by HPLC using reverse phase columns. The HPLC system was coupled via a Turbo Ion Spray Interface to a Triple Quadropole mass spectrometer API 3000 (Applied Biosystems Applera, Darmstadt, Germany). The permeability was evaluated on the basis of a Papp value which was calculated using the formula published by Schwab et al. [D. Schwab et al., J. Med. Chem. 46, 1716-1725 (2003)].
Table 8 below lists permeability data for representative working examples from this assay, which was carried out in L-MDR1 cells: […]

SMILES strings stand for the structures.

T1 sequence (P08183 whole entry): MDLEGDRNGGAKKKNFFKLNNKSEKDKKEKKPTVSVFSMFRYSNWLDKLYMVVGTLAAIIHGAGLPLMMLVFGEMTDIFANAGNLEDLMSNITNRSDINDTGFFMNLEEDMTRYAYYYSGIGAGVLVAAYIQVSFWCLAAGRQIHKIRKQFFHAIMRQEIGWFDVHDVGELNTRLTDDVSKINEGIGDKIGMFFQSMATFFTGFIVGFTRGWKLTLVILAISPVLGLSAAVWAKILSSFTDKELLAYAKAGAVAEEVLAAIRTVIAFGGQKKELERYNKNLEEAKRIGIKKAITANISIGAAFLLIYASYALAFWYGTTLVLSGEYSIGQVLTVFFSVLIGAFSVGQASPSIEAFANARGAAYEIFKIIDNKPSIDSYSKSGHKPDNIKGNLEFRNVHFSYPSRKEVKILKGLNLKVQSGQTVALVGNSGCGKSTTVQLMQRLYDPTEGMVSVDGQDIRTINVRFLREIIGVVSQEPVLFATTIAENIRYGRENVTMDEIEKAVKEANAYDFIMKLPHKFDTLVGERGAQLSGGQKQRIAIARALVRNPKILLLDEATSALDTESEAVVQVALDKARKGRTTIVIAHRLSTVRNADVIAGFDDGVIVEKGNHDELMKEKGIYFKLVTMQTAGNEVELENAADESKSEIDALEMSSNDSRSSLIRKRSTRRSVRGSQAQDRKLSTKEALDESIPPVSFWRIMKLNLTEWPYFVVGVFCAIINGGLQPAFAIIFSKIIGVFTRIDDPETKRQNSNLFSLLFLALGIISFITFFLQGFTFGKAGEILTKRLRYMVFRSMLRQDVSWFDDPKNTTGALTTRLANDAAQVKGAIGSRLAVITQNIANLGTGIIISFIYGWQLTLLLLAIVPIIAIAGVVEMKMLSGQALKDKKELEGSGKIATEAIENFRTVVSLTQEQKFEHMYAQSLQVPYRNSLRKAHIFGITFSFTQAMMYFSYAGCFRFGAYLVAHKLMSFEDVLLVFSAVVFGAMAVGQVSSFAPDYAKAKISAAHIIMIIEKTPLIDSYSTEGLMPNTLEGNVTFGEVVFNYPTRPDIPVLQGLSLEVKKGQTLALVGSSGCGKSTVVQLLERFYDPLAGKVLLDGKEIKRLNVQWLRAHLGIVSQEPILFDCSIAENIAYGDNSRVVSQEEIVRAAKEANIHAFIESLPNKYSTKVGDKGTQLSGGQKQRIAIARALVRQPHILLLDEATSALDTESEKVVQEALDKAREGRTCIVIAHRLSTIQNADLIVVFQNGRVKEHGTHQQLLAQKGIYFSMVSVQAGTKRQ

With `CC[C@H](C)[C@@H]([C@@H](CC(=O)N1CCC[C@H]1[C@H](OC)[C@@H](C)C(=O)N[C@@H](Cc1c[nH]c2ccccc12)C(=O)O)OC)N(C)C(=O)[C@@H](NC(=O)[C@H](C(C)C)N(C)CCCC(=O)NNC(=O)CCCCCN1C(=O)CC(SC[C@H](N)C(=O)O)C1=O)C(C)C` (stereo partly drawn) [Example 22, N-(4-{2-[6-(3-{[(2R)-2-Amino-2-carboxyethyl]sulphanyl}-2,5-dioxopyrrolidin-1-yl)hexanoyl]hydrazino}-4-oxobutyl)-N-methyl-L-valyl-N-[(3R,4S,5S)-1-{(2S)-2-[(1R,2R)-3-{[(1S)-1-carboxy-2-(1H-indol-3-yl)ethyl]amino}-1-methoxy-2-methyl-3-oxopropyl]pyrrolidin-1-yl}-3-methoxy-5-methyl-1-oxoheptan-4-yl]-N-methyl-L-valinamide], in series [1], the Papp B→A at 2 h came out at 0.2 ×10⁻⁶ cm/s. For the same molecule, the “Tubulin polymerization in the presence of toxophore” value in series [2] (toxophore 1 μM) amounted to 109%; in series [2] (toxophore 10 μM), 27%. For the same molecule, the “Papp (B-A)” value in series [3] came to 0.4 ×10⁻⁶ cm/s.
